According to patent US20230104936A1, “TRPML MODULATORS” (Casma Therapeutics, Inc., priority 2019, published 2023):

Test system: TFEB
Experiment: TFEB nuclear translocation assay, HeLa wt cells
Format: cell-based
Conditions: 2 hrs compound treatment, Table 1 does not say HeLa wt or TRPML1 KO
Method in brief: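 HeLa wt or TRPML1 KO cells treated 2 hrs with compounds at 37° C, fixed in 4% PFA, immunostained with anti-TFEB plus Alexa 488 secondary and Hoechst. Imaged at ×20, four fields/well; read-out is nuclear/perinuclear-ring TFEB intensity ratio, reported as AC50.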

Row | Compound | AC50 (Homo sapiens, HeLa, 2 h) [µM] | AC50 [µM]
1 | CC1(C)CC2(CCN(c3ccccc3NS(=O)(=O)c3ccc(S(C)(=O)=O)cc3)CC2)CO1 [Compound A-693, N-(2-{3,3-dimethyl-2-oxa-8-azaspiro[4.5]decan-8-yl}phenyl)-4-methanesulfonylbenzene-1-sulfonamide] | 2.01 to 8 | –
2 | COCC1(C)CCN(c2ccccc2NS(=O)(=O)Cc2cccc(S(=O)(=O)N(C)C)c2)CC1 [Compound A-680, 3-[({2-[4-(methoxymethyl)-4-methylpiperidin-1-yl]phenyl}sulfamoyl)methyl]-N,N-dimethylbenzene-1-sulfonamide] | 8.01 to 9.99 | –
3 | COCC1(C)CCN(c2ccccc2NS(=O)(=O)c2ccc3c(c2)OC(C)(C)C3)CC1 [Compound A-738, N-{2-[4-(methoxymethyl)-4-methylpiperidin-1-yl]phenyl}-2,2-dimethyl-2,3-dihydro-1-benzofuran-6-sulfonamide] | ≤ 2 | –
4 | COc1ccc(S(=O)(=O)Nc2cccnc2N2CCN(c3ncc(Cl)cc3F)CC2)cc1 [Compound A-110, N-{2-[4-(5-chloro-3-fluoropyridin-2-yl)piperazin-1-yl]pyridin-3-yl}-4-methoxybenzene-1-sulfonamide] | ≥ 10 | –
5 | Cc1cc(C)cc(CS(=O)(=O)Nc2ccccc2N2CCN(C(=O)C(C)(C)C)CC2)c1 [Compound A-500, 1-(3,5-dimethylphenyl)-N-{2-[4-(2,2-dimethylpropanoyl)piperazin-1-yl]phenyl}methanesulfonamide] | 2.01 to 8 | –
6 | CN(C)S(=O)(=O)c1ccc(S(=O)(=O)Nc2cccc(C#CC(F)F)c2N2CCCCC2)cc1 [Compound A-921, N4-[3-(3,3-difluoroprop-1-yn-1-yl)-2-(piperidin-1-yl)phenyl]-N1,N1-dimethylbenzene-1,4-disulfonamide] | ≤ 2 | –
7 | COCC1(C)CCN(c2ccccc2NS(=O)(=O)c2cccc(C3CC3(F)F)c2)CC1 (centres unmarked) [Compound A-651, 3-(2,2-difluorocyclopropyl)-N-{2-[4-(methoxymethyl)-4-methylpiperidin-1-yl]phenyl}benzene-1-sulfonamide] | ≤ 2 | –
8 | CC(c1cccc(F)c1N1CCC(C)(C(F)F)CC1)S(=O)(=O)c1ccc(S(=N)(=O)N(C)C)cc1 (single isomer, unassigned) [Compound A-975, 4-((1-(2-(4-(difluoromethyl)-4-methylpiperidin-1-yl)-3-fluorophenyl)ethyl)sulfonyl)-N,N-dimethylbenzenesulfonimidamide] | – | ≥ 10
9 | CC(C)(C)C(=O)N1CCN(c2ccccc2NS(=O)(=O)c2ccc(C(C)(C)C(F)(F)F)cc2)CC1 [Compound A-572, N-{2-[4-(2,2-dimethylpropanoyl)piperazin-1-yl]phenyl}-4-(1,1,1-trifluoro-2-methylpropan-2-yl)benzene-1-sulfonamide] | 2.01 to 8 | –
10 | CN1CC2(CCN(c3ccccc3N(C)S(=O)(=O)c3ccc(S(C)(=O)=O)cc3)CC2)c2ccc(F)cc21 [Compound A-307, N-(2-{6-fluoro-1-methyl-1,2-dihydrospiro[indole-3,4′-piperidin]-1′-yl}phenyl)-4-methanesulfonyl-N-methylbenzene-1-sulfonamide] | 2.01 to 8 | –
11 | COCC1(C)CCN(c2ccccc2NS(=O)(=O)c2cccc(C)c2)CC1 [Compound A-618, N-{2-[4-(methoxymethyl)-4-methylpiperidin-1-yl]phenyl}-3-methylbenzene-1-sulfonamide] | 2.01 to 8 | –
12 | CN(C)S(=O)(=O)c1ccc(S(=O)(=O)Nc2cc(F)ccc2N2CCC3(CC2)COC(C)(C)C3)cc1 [Compound A-605, N4-(2-{3,3-dimethyl-2-oxa-8-azaspiro[4.5]decan-8-yl}-5-fluorophenyl)-N1,N1-dimethylbenzene-1,4-disulfonamide] | ≤ 2 | –
13 | CN(C)C1CCCC12CCN(c1ccccc1NS(=O)(=O)c1ccc(S(=O)(=O)N(C)C)cc1)CC2 (centres unmarked) [Compound A-281, N4-{2-[1-(dimethylamino)-8-azaspiro[4.5]decan-8-yl]phenyl}-N1,N1-dimethylbenzene-1,4-disulfonamide] | ≥ 10 | –
14 | CC(c1cccc(F)c1N1CCC(CN2C[C@@H](C)O[C@@H](C)C2)CC1)S(=O)(=O)c1ccc(S(=O)(=O)C(F)F)cc1 (single isomer, unassigned) [Compound A-808, 4-((1-(2-(1-((4-((difluoromethyl)sulfonyl)phenyl)sulfonyl)ethyl)-6-fluorophenyl)piperidin-4-yl)methyl)-2,6-dimethylmorpholine] | – | ≤ 2
15 | CC(C)(C)C(=O)N1CCN(c2ccccc2NS(=O)(=O)c2ccc3c(c2)CC(Cl)(Cl)C3=O)CC1 [Compound A-534, 2,2-dichloro-N-{2-[4-(2,2-dimethylpropanoyl)piperazin-1-yl]phenyl}-1-oxo-2,3-dihydro-1H-indene-5-sulfonamide] | 2.01 to 8 | –
16 | CP(C)(=O)c1ccc(S(=O)(=O)Nc2ccccc2N2CCC(c3ccc(F)cc3F)CC2)cc1 [Compound A-176, N-{2-[4-(2,4-difluorophenyl)piperidin-1-yl]phenyl}-4-(dimethylphosphoryl)benzene-1-sulfonamide] | ≥ 10 | –

Row | Compound | AC50 (Homo sapiens, HeLa, 2 h) [µM] | AC50 [µM]
17 | CC(c1cccc(F)c1N1CCC(CN2CC3CCC(C2)C3(F)F)CC1)S(=O)(=O)c1ccc(S(=O)(=O)N(C)C)cc1 (centres unmarked) [Compound A-985, 4-(1-{2-[4-({8,8-difluoro-3-azabicyclo[3.2.1]octan-3-yl}methyl)piperidin-1-yl]-3-fluorophenyl}ethanesulfonyl)-N,N-dimethylbenzene-1-sulfonamide] | ≤ 2 | –
18 | COCC1(C)CCN(c2ccccc2NS(=O)(=O)Cc2cccc(C#N)c2)CC1 [Compound A-581, 1-(3-cyanophenyl)-N-{2-[4-(methoxymethyl)-4-methylpiperidin-1-yl]phenyl}methanesulfonamide] | 2.01 to 8 | –
19 | CC(c1cccc(F)c1N1CCC(CN2C3COCC2C3)CC1)S(=O)(=O)c1ccc(S(=O)(=O)N(C)C)cc1 [Compound A-869, rel-4-[(1R)-1-{3-fluoro-2-[4-({3-oxa-6-azabicyclo[3.1.1]heptan-6-yl}methyl)piperidin-1-yl]phenyl}ethanesulfonyl]-N,N-dimethylbenzene-1-sulfonamide] | 2.01 to 8 | –
20 | CC(C1CCN(c2c(F)cccc2NS(=O)(=O)c2ccc(S(=O)(=O)N(C)C)cc2)CC1)N1C[C@@H](C)O[C@@H](C)C1 (stereo partly drawn) [Compound A-748, N4-[2-(4-{1-[(2R,6S)-2,6-dimethylmorpholin-4-yl]ethyl}piperidin-1-yl)-3-fluorophenyl]-N1,N1-dimethylbenzene-1,4-disulfonamide] | ≤ 2 | –
21 | C[C@@H]1CN(CC2CCN(c3c(F)cccc3[C@H](C)S(=O)(=O)c3ccc(S(=N)(=O)N(C)C)cc3)CC2)C[C@H](C)O1 (single isomer, unassigned) [Compound A-931] | ≤ 2 | –
22 | COCC1(C)CCN(c2ccccc2NC(c2ccc(S(=O)(=O)N(C)C)cc2)C(F)(F)F)CC1 (centres unmarked) [Compound A-684, N,N-dimethyl-4-(2,2,2-trifluoro-1-((2-(4-(methoxymethyl)-4-methylpiperidin-1-yl)phenyl)amino)ethyl)benzenesulfonamide] | 2.01 to 8 | –
23 | CP(C)(=O)c1ccc(S(=O)(=O)Nc2ccccc2N2CCC(c3c(F)cccc3F)CC2)cc1 [Compound A-177, N-{2-[4-(2,6-difluorophenyl)piperidin-1-yl]phenyl}-4-(dimethylphosphoryl)benzene-1-sulfonamide] | ≥ 10 | –
24 | CN(C)S(=O)(=O)c1ccc(S(=O)(=O)Nc2ccccc2N2CCN(C(=O)C3(CF)CCC3)CC2)cc1 [Compound A-430, N4-(2-{4-[1-(fluoromethyl)cyclobutanecarbonyl]piperazin-1-yl}phenyl)-N1,N1-dimethylbenzene-1,4-disulfonamide] | 2.01 to 8 | –
25 | CC(c1cccc(F)c1N1CCC(CN2C[C@@H](C)O[C@H](C)C2)CC1)S(=O)(=O)c1ccc(S(=O)(=O)N(C)C)cc1 (single isomer, unassigned) [Compound A-885, 4-[1-[2-(4-{[2,6-dimethylmorpholin-4-yl]methyl}piperidin-1-yl)-3-fluorophenyl]ethanesulfonyl]-N,N-dimethylbenzene-1-sulfonamide] | ≤ 2 | –
26 | CC(c1ccc(S(=O)(=O)Nc2ccccc2N2CCC(CN3C[C@@H](C)O[C@@H](C)C3)CC2)cc1)C1CC1 (stereo partly drawn) [Compound A-779, 4-(1-cyclopropylethyl)-N-[2-(4-{[(2R,6S)-2,6-dimethylmorpholin-4-yl]methyl}piperidin-1-yl)phenyl]benzene-1-sulfonamide] | ≤ 2 | –
27 | Cc1cccc(CS(=O)(=O)Nc2ccccc2N2CCC3(CC2)COC(C)(C)C3)c1 [Compound A-664, N-(2-{3,3-dimethyl-2-oxa-8-azaspiro[4.5]decan-8-yl}phenyl)-1-(3-methylphenyl)methanesulfonamide] | ≤ 2 | –
28 | COCC1(C)CCN(c2ccccc2NS(=O)(=O)c2ccc(S(=O)(=O)N(C)C)cc2)C(C)C1 (centres unmarked) [Compound A-745, N4-{2-[4-(methoxymethyl)-2,4-dimethylpiperidin-1-yl]phenyl}-N1,N1-dimethylbenzene-1,4-disulfonamide] | ≥ 10 | –
29 | COCCS(=O)(=O)c1ccc(S(=O)(=O)Nc2ccccc2N2CCC(c3ccc(Cl)cc3F)CC2)cc1 [Compound A-701, N-{2-[4-(4-chloro-2-fluorophenyl)piperidin-1-yl]phenyl}-4-(2-methoxyethanesulfonyl)benzene-1-sulfonamide] | ≤ 2 | –
30 | CN(C)CC1(c2ccc(F)cc2)CCN(c2ccccc2NS(=O)(=O)c2ccc(S(=O)(=O)N(C)C)cc2)CC1 [Compound A-231, N4-(2-{4-[(dimethylamino)methyl]-4-(4-fluorophenyl)piperidin-1-yl}phenyl)-N1,N1-dimethylbenzene-1,4-disulfonamide] | ≤ 2 | –
31 | CN(C)S(=O)(=O)c1ccc(S(=O)(=O)Nc2ccccc2N2CCC(C(N)=O)(c3ccc(F)cc3F)CC2)cc1 [Compound A-163, 4-(2,4-difluorophenyl)-1-{2-[4-(dimethylsulfamoyl)benzenesulfonamido]phenyl}piperidine-4-carboxamide] | ≥ 10 | –
32 | Cc1ccc([S+]([O-])Cc2ccccc2N2CCC(c3ccc(Cl)cc3F)CC2)cc1 (centres unmarked) [Compound A-145, 4-(4-chloro-2-fluorophenyl)-1-(2-((p-tolylsulfinyl)methyl)phenyl)piperidine] | ≥ 10 | –
